Test system: NCI-H1876 tumor spheroid viability
Assay: Anticancer human tumor NCI-H1876 cell line growth inhibition;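 further: spheroids exposed to compounds for seven days before the viability read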;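 on viability, T/C: percent of DMSO vehicle control viability so 100% = vehicle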
Details: spheroids with HUVEC and MSC; for IC50: curve of first compound; for viability, T/C: stronger effect = lower value
Summary of the method: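 Complex spheroids of malignant cells with endothelial cells and mesenchymal stem cells; agents alone or combined, from near clinical Cmax (or 10 microM if unknown) down in half-log steps, 0.25% DMSO final.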

[1] = second compound 30 pM, first compound 0.0316 µM
[2] = second compound 30 pM, first compound 0.1 µM
[3] = second compound 30 pM, first compound 0.316 µM
[4] = second compound 30 pM, first compound 1 µM
[5] = second compound 30 pM, first compound 3.16 µM
[6] = second compound 30 pM, first compound 10 µM
[7] = second compound 94.9 pM, first compound 0.0316 µM
[8] = second compound 94.9 pM, first compound 0.1 µM
[9] = second compound 94.9 pM, first compound 0.316 µM
[10] = second compound 94.9 pM, first compound 1 µM
[11] = second compound 94.9 pM, first compound 3.16 µM
[12] = second compound 94.9 pM, first compound 10 µM
[13] = second compound 0.0003 µM, first compound 0.0316 µM
[14] = second compound 0.0003 µM, first compound 0.1 µM
[15] = second compound 0.0003 µM, first compound 0.316 µM
[16] = second compound 0.0003 µM, first compound 1 µM
[17] = second compound 0.0003 µM, first compound 3.16 µM
[18] = second compound 0.0003 µM, first compound 10 µM
[19] = second compound 0.000949 µM, first compound 0.0316 µM
[20] = second compound 0.000949 µM, first compound 0.1 µM
[21] = second compound 0.000949 µM, first compound 0.316 µM
[22] = second compound 0.000949 µM, first compound 1 µM
[23] = second compound 0.000949 µM, first compound 3.16 µM
[24] = second compound 0.000949 µM, first compound 10 µM
[25] = second compound 0.003 µM, first compound 0.0316 µM
[26] = second compound 0.003 µM, first compound 0.1 µM
[27] = second compound 0.003 µM, first compound 0.316 µM
[28] = second compound 0.003 µM, first compound 1 µM
[29] = second compound 0.003 µM, first compound 3.16 µM
[30] = second compound 0.003 µM, first compound 10 µM

Compound: CC(C)n1c(=O)n(C)c2cnc3cc(F)c(-c4ccc(OCCCN5CCCCC5)nc4)cc3c21 + COc1cc2c(cc1O)CCNC21CSC2c3c(OC(C)=O)c(C)c4c(c3C(COC1=O)N1C(O)C3Cc5cc(C)c(OC)c(O)c5C(C21)N3C)OCO4
- IC50 (second compound 30 pM): > 10000 nM
- IC50 (second compound 94.9 pM): > 10000 nM
- IC50 (second compound 0.0003 µM): < 31.6 nM
- IC50 (second compound 0.000949 µM): < 31.6 nM
- IC50 (second compound 0.003 µM): < 31.6 nM
- viability, T/C [1]: 94%
- viability, T/C [2]: 93.1%
- viability, T/C [3]: 95%
- viability, T/C [4]: 95.5%
- viability, T/C [5]: 93.7%
- viability, T/C [6]: 86.7%
- viability, T/C [7]: 66.3%
- viability, T/C [8]: 58.5%
- viability, T/C [9]: 49.3%
- viability, T/C [10]: 53.5%
- viability, T/C [11]: 55.2%
- viability, T/C [12]: 46.8%
- viability, T/C [13]: 10.7%
- viability, T/C [14]: 9.04%
- viability, T/C [15]: 11%
- viability, T/C [16]: 9.85%
- viability, T/C [17]: 12.3%
- viability, T/C [18]: 9.65%
- viability, T/C [19]: 2.08%
- viability, T/C [20]: 1.93%
- viability, T/C [21]: 1.77%
- viability, T/C [22]: 1.8%
- viability, T/C [23]: 2.69%
- viability, T/C [24]: 2.47%
- viability, T/C [25]: 0.9%
- viability, T/C [26]: 0.67%
- viability, T/C [27]: 0.58%
- viability, T/C [28]: 0.77%
- viability, T/C [29]: 0.63%
- viability, T/C [30]: 1.09%

Compound: CC1COCCN1c1cc(-c2ccnn2C)c2ccnc(-c3ccn[nH]3)c2n1 (stereo not given) + COc1cc2c(cc1O)CCNC21CSC2c3c(OC(C)=O)c(C)c4c(c3C(COC1=O)N1C(O)C3Cc5cc(C)c(OC)c(O)c5C(C21)N3C)OCO4
- IC50 (second compound 30 pM): < 31.6 nM
- IC50 (second compound 94.9 pM): < 31.6 nM
- IC50 (second compound 0.0003 µM): < 31.6 nM
- IC50 (second compound 0.000949 µM): < 31.6 nM
- IC50 (second compound 0.003 µM): < 31.6 nM
- viability, T/C [1]: 30.7%
- viability, T/C [2]: 17.9%
- viability, T/C [3]: 11.3%
- viability, T/C [4]: 4.58%
- viability, T/C [5]: 3.01%
- viability, T/C [6]: 2.83%
- viability, T/C [7]: 17.4%
- viability, T/C [8]: 10.3%
- viability, T/C [9]: 6.18%
- viability, T/C [10]: 3.39%
- viability, T/C [11]: 2.3%
- viability, T/C [12]: 2.27%
- viability, T/C [13]: 5.4%
- viability, T/C [14]: 4.29%
- viability, T/C [15]: 2.95%
- viability, T/C [16]: 2.33%
- viability, T/C [17]: 2.39%
- viability, T/C [18]: 2.2%
- viability, T/C [19]: 2.56%
- viability, T/C [20]: 2.32%
- viability, T/C [21]: 1.67%
- viability, T/C [22]: 1.48%
- viability, T/C [23]: 1.48%
- viability, T/C [24]: 2.04%
- viability, T/C [25]: 0.92%
- viability, T/C [26]: 1.05%
- viability, T/C [27]: 0.72%
- viability, T/C [28]: 0.9%
- viability, T/C [29]: 0.88%
- viability, T/C [30]: 0.28%

Compound: COc1cc(C)[nH]c(=O)c1CN1CCc2c(Cl)cc(C(OC)C3COC3)c(Cl)c2C1=O (stereo not given) + COc1cc2c(cc1O)CCNC21CSC2c3c(OC(C)=O)c(C)c4c(c3C(COC1=O)N1C(O)C3Cc5cc(C)c(OC)c(O)c5C(C21)N3C)OCO4
- IC50 (second compound 30 pM): > 10000 nM
- IC50 (second compound 94.9 pM): > 10000 nM
- IC50 (second compound 0.0003 µM): < 31.6 nM
- IC50 (second compound 0.000949 µM): < 31.6 nM
- IC50 (second compound 0.003 µM): < 31.6 nM
- viability, T/C [1]: 99.7%
- viability, T/C [2]: 104%
- viability, T/C [3]: 96.9%
- viability, T/C [4]: 97.6%
- viability, T/C [5]: 94.5%
- viability, T/C [6]: 90.5%
- viability, T/C [7]: 91.6%
- viability, T/C [8]: 89.6%
- viability, T/C [9]: 89.5%
- viability, T/C [10]: 86.9%
- viability, T/C [11]: 81.9%
- viability, T/C [12]: 76.7%
- viability, T/C [13]: 22%
- viability, T/C [14]: 21.2%
- viability, T/C [15]: 23.9%
- viability, T/C [16]: 20.5%
- viability, T/C [17]: 19.1%
- viability, T/C [18]: 14%
- viability, T/C [19]: 2.52%
- viability, T/C [20]: 2.44%
- viability, T/C [21]: 2.38%
- viability, T/C [22]: 2.44%
- viability, T/C [23]: 2.06%
- viability, T/C [24]: 2.03%
- viability, T/C [25]: 0.75%
- viability, T/C [26]: 0.84%
- viability, T/C [27]: 0.98%
- viability, T/C [28]: 0.57%
- viability, T/C [29]: 0.7%
- viability, T/C [30]: 0.93%

Compound: COc1ccc([C@@H](O)c2cc(-c3ncnc4cc(N5CCOCC5)ccc34)c(F)cc2Cl)nn1 + COc1cc2c(cc1O)CCNC21CSC2c3c(OC(C)=O)c(C)c4c(c3C(COC1=O)N1C(O)C3Cc5cc(C)c(OC)c(O)c5C(C21)N3C)OCO4
- IC50 (second compound 30 pM): 2540 nM
- IC50 (second compound 94.9 pM): 778 nM
- IC50 (second compound 0.0003 µM): < 31.6 nM
- IC50 (second compound 0.000949 µM): < 31.6 nM
- IC50 (second compound 0.003 µM): < 31.6 nM
- viability, T/C [1]: 104%
- viability, T/C [2]: 102%
- viability, T/C [3]: 99.5%
- viability, T/C [4]: 92%
- viability, T/C [5]: 40.2%
- viability, T/C [6]: 8.98%
- viability, T/C [7]: 93%
- viability, T/C [8]: 87.6%
- viability, T/C [9]: 78%
- viability, T/C [10]: 41.5%
- viability, T/C [11]: 16.1%
- viability, T/C [12]: 5.87%
- viability, T/C [13]: 20.7%
- viability, T/C [14]: 20.1%
- viability, T/C [15]: 15.1%
- viability, T/C [16]: 7.3%
- viability, T/C [17]: 2.15%
- viability, T/C [18]: 2.31%
- viability, T/C [19]: 2.44%
- viability, T/C [20]: 2.76%
- viability, T/C [21]: 3.13%
- viability, T/C [22]: 1.08%
- viability, T/C [23]: 0.81%
- viability, T/C [24]: 0.98%
- viability, T/C [25]: 0.93%
- viability, T/C [26]: 0.67%
- viability, T/C [27]: 0.53%
- viability, T/C [28]: 0.63%
- viability, T/C [29]: 0.36%
- viability, T/C [30]: 0.33%

Compound: Cc1cc(C)c(CNC(=O)c2cc(-c3ccc(CN4CCOCC4)cc3)cc3c2cnn3C2CCCC2)c(=O)[nH]1 + COc1cc2c(cc1O)CCNC21CSC2c3c(OC(C)=O)c(C)c4c(c3C(COC1=O)N1C(O)C3Cc5cc(C)c(OC)c(O)c5C(C21)N3C)OCO4
- IC50 (second compound 30 pM): > 10000 nM
- IC50 (second compound 94.9 pM): > 10000 nM
- IC50 (second compound 0.0003 µM): < 31.6 nM
- IC50 (second compound 0.000949 µM): < 31.6 nM
- IC50 (second compound 0.003 µM): < 31.6 nM
- viability, T/C [1]: 103%
- viability, T/C [2]: 101%
- viability, T/C [3]: 104%
- viability, T/C [4]: 104%
- viability, T/C [5]: 104%
- viability, T/C [6]: 85.3%
- viability, T/C [7]: 93.1%
- viability, T/C [8]: 94.2%
- viability, T/C [9]: 94.1%
- viability, T/C [10]: 91.5%
- viability, T/C [11]: 93.2%
- viability, T/C [12]: 63.8%
- viability, T/C [13]: 29.7%
- viability, T/C [14]: 33.7%
- viability, T/C [15]: 34.9%
- viability, T/C [16]: 27.2%
- viability, T/C [17]: 28.6%
- viability, T/C [18]: 17.4%
- viability, T/C [19]: 2.79%
- viability, T/C [20]: 5.13%
- viability, T/C [21]: 3.54%
- viability, T/C [22]: 3.83%
- viability, T/C [23]: 3.88%
- viability, T/C [24]: 4.21%
- viability, T/C [25]: 0.62%
- viability, T/C [26]: 0.99%
- viability, T/C [27]: 0.83%
- viability, T/C [28]: 1.17%
- viability, T/C [29]: 0.68%
- viability, T/C [30]: 0.88%

Compound: [2H]c1nc(C)nc([2H])c1-c1cc(NC[C@@H](C)c2cccc3c(C(=O)NC)ccnc23)ncn1 + COc1cc2c(cc1O)CCNC21CSC2c3c(OC(C)=O)c(C)c4c(c3C(COC1=O)N1C(O)C3Cc5cc(C)c(OC)c(O)c5C(C21)N3C)OCO4
- IC50 (second compound 30 pM): > 10000 nM
- IC50 (second compound 94.9 pM): > 10000 nM
- IC50 (second compound 0.0003 µM): < 31.6 nM
- IC50 (second compound 0.000949 µM): < 31.6 nM
- IC50 (second compound 0.003 µM): < 31.6 nM
- viability, T/C [1]: 102%
- viability, T/C [2]: 101%
- viability, T/C [3]: 101%
- viability, T/C [4]: 101%
- viability, T/C [5]: 100%
- viability, T/C [6]: 98%
- viability, T/C [7]: 90.8%
- viability, T/C [8]: 94.2%
- viability, T/C [9]: 94.6%
- viability, T/C [10]: 94.5%
- viability, T/C [11]: 93.9%
- viability, T/C [12]: 85.7%
- viability, T/C [13]: 31%
- viability, T/C [14]: 32.2%
- viability, T/C [15]: 35.5%
- viability, T/C [16]: 30%
- viability, T/C [17]: 31.6%
- viability, T/C [18]: 21.6%
- viability, T/C [19]: 3.38%
- viability, T/C [20]: 2.4%
- viability, T/C [21]: 2.32%
- viability, T/C [22]: 2.39%
- viability, T/C [23]: 2.46%
- viability, T/C [24]: 3.2%
- viability, T/C [25]: 0.5%
- viability, T/C [26]: 0.64%
- viability, T/C [27]: 0.5%
- viability, T/C [28]: 0.66%
- viability, T/C [29]: 0.74%
- viability, T/C [30]: 0.7%
